This is an account of results in ChEMBL document CHEMBL1201862, “PubChem BioAssay data set” (2004).

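Cells were grown in 96-well plates and exposed to each compound for 48 hours at five concentrations; endpoints were interpolated linearly between bracketing concentrations, or set to the highest concentration if not reached. GI50 marks 50% less growth.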 Calls of active or inactive are those of the source. Cut-off read from the data, not from the text of the source: active = GI50 up to about 1.1 µM and inactive = higher. Some results are limits rather than exact numbers.

Some test systems named below: CAKI-1; KM12; NCI-H226; A549; U-251; DU-145; NCI-H23; ACHN; MOLT-4; UACC-257; OVCAR-5; SW-620; M14; RPMI-8226; NCI/ADR-RES; SN12C; LOX IMVI; NCI-H522; IGROV-1.
What all share (assay): DTP human tumour cell line panel, 48 h

In the case of `Oc1ccccc1/C=N/N1C(=S)N(c2ccccc2)C(=N\c2ccccc2)/C1=N/c1ccccc1`, the GI50 was 12.4 µM (inactive) with CAKI-1; 46.3 µM (inactive) in the assay with KM12; 11.6 µM (inactive) with NCI-H226; 13.9 µM (inactive) with A549; 2.79 µM (inactive) in the assay on U-251; 16.9 µM (inactive) in the assay on DU-145. Moreover, the GI50 with NCI-H23 was 11.1 µM (inactive); in the assay on ACHN, 2.41 µM (inactive); in the assay on MOLT-4, > 33.3 µM (inactive); with UACC-257 it was 25.1 µM (inactive); with OVCAR-5 it was 34 µM (inactive); with SW-620, 22.3 µM (inactive). For the same compound, the GI50 is 15.1 µM (inactive) in the assay on M14; > 35.6 µM (inactive) with RPMI-8226; 13.6 µM (inactive) in the assay on NCI/ADR-RES; 12.4 µM (inactive) with SN12C; 13.7 µM (inactive) with LOX IMVI; 3.89 µM (inactive) in the assay on NCI-H522. In addition, the GI50 with IGROV-1 is 14 µM (inactive).

`N#Cc1ccc(CSC2=C(c3ccc(Cl)cc3)S/C(=C3\SC(SCc4ccc(C#N)cc4)=C(c4ccc(Cl)cc4)S3)S2)cc1`: the GI50 with CAKI-1, in the assay on KM12, with NCI-H226, in the assay with A549, in the assay on U-251 and in the assay on DU-145 was > 100 µM (inactive) in each case. The GI50 in the assay with NCI-H23, in the assay on ACHN, with MOLT-4, in the assay with UACC-257, in the assay with OVCAR-5 and in the assay with SW-620 was > 100 µM (inactive) in each case. For the same compound, the GI50 with M14, in the assay with RPMI-8226, with NCI/ADR-RES, in the assay on SN12C, with LOX IMVI and with NCI-H522 was > 100 µM (inactive) in each case. Further, the GI50 with IGROV-1 is > 100 µM (inactive).

Turning to `CC[C@H](NC1=C(Cl)C(=O)c2c(O)ccc(O)c2C1=O)C(=O)OC`, the GI50 was > 10 µM (inactive) in the assay with CAKI-1; > 10 µM (inactive) in the assay on KM12; > 10 µM (inactive) in the assay with NCI-H226; > 10 µM (inactive) in the assay with A549; 6.12 µM (inactive) in the assay with U-251; > 10 µM (inactive) in the assay with DU-145. Besides, the GI50 was > 10 µM (inactive) with NCI-H23; > 10 µM (inactive) in the assay with ACHN; 2.6 µM (inactive) in the assay with MOLT-4; 3.66 µM (inactive) in the assay on UACC-257; > 10 µM (inactive) in the assay on OVCAR-5; 5.79 µM (inactive) in the assay with SW-620. Besides, the GI50 was 3.72 µM (inactive) in the assay with M14; > 10 µM (inactive) in the assay on RPMI-8226; 7.28 µM (inactive) in the assay on NCI/ADR-RES; 3.05 µM (inactive) in the assay with SN12C; 3.64 µM (inactive) in the assay with LOX IMVI; 3.53 µM (inactive) in the assay on NCI-H522. Besides, the GI50 with IGROV-1 is > 10 µM (inactive).

For `O=C(c1cc2ccccc2[nH]1)N1C2CCC1CN(CCOC(c1ccc(F)cc1)c1ccc(F)cc1)CC2` (stereo not drawn), the GI50 is 6.81 µM (inactive) with CAKI-1; 60.3 µM (inactive) with KM12; 6.9 µM (inactive) in the assay with NCI-H226; 34.9 µM (inactive) in the assay on A549; 3.99 µM (inactive) in the assay with U-251; > 100 µM (inactive) in the assay with DU-145. In addition, the GI50 in the assay on NCI-H23 is 40.1 µM (inactive); with ACHN, 95.1 µM (inactive); in the assay on MOLT-4, 4.91 µM (inactive); in the assay on UACC-257, 12.5 µM (inactive); with OVCAR-5 it was > 100 µM (inactive); in the assay on SW-620, > 100 µM (inactive). For the same compound, the GI50 was > 100 µM (inactive) with M14; 9.2 µM (inactive) in the assay on RPMI-8226; > 100 µM (inactive) in the assay with NCI/ADR-RES; 18.2 µM (inactive) in the assay with SN12C; 9.48 µM (inactive) in the assay with LOX IMVI; 18.1 µM (inactive) in the assay with NCI-H522. Also, in the assay on IGROV-1, the GI50 is 2.26 µM (inactive).

Turning to `C/C(=N/NC(=S)Nc1ccc(C)cc1)c1ccccn1`, the GI50 in the assay with CAKI-1 is 0.0968 µM (active); with KM12, 0.122 µM (active); with NCI-H226, 0.0908 µM (active); in the assay on A549 it was 0.5 µM (active); in the assay with U-251 it was 0.125 µM (active); in the assay on DU-145, 0.794 µM (active). Besides, the GI50 in the assay with NCI-H23 was < 0.0185 µM (active); in the assay with ACHN, 0.0515 µM (active); with MOLT-4, < 0.0122 µM (active); with UACC-257, < 0.0163 µM (active); in the assay with OVCAR-5, 0.0493 µM (active); in the assay with SW-620, < 0.0164 µM (active). Further, the GI50 in the assay on M14 was 0.0446 µM (active); in the assay with RPMI-8226, < 0.0156 µM (active); with NCI/ADR-RES, < 0.0152 µM (active); in the assay on SN12C, 0.192 µM (active); in the assay on LOX IMVI, 0.0162 µM (active); in the assay on NCI-H522 it was 0.12 µM (active). Also, the GI50 in the assay on IGROV-1 was < 0.0155 µM (active).

Take `CC(C)C1CC(CO)(CNc2nc(N)nc(Cl)c2C=O)C1` (stereo not drawn): the GI50 in the assay with CAKI-1 was 2.17 µM (inactive); in the assay on KM12 it was 7.35 µM (inactive); with NCI-H226, 8.95 µM (inactive); in the assay with A549 it was 12.9 µM (inactive); in the assay on U-251 it was 3.35 µM (inactive); in the assay with DU-145, 14.6 µM (inactive). The GI50 in the assay on NCI-H23 was 2.22 µM (inactive); with ACHN, 5.35 µM (inactive); in the assay on MOLT-4, 2.15 µM (inactive); with UACC-257, 2.49 µM (inactive); in the assay with OVCAR-5, 17.1 µM (inactive); in the assay on SW-620, 6.15 µM (inactive). For the same compound, the GI50 in the assay on M14 was 1.77 µM (inactive); in the assay on RPMI-8226 it was 11 µM (inactive); in the assay with NCI/ADR-RES, 6.03 µM (inactive); with SN12C, 3.75 µM (inactive); in the assay with LOX IMVI, 2.04 µM (inactive); with NCI-H522, 0.604 µM (active). Moreover, the GI50 in the assay on IGROV-1 was 1.89 µM (inactive).

`Cc1nnc(N2C(=O)C(=Cc3ccc(Cl)cc3)N=C2c2ccc(Cl)cc2)nc1/C=C\c1ccc(N(C)C)cc1`: the GI50 in the assay on CAKI-1, with KM12, in the assay with NCI-H226, in the assay with A549, with U-251 and in the assay with DU-145 was > 100 µM (inactive) throughout. The GI50 with NCI-H23, in the assay on ACHN, in the assay on MOLT-4, in the assay on UACC-257, in the assay on OVCAR-5 and in the assay on SW-620 was > 100 µM (inactive) throughout. Moreover, the GI50 in the assay with M14 was 83.6 µM (inactive); in the assay with RPMI-8226, 72.3 µM (inactive); with NCI/ADR-RES, > 100 µM (inactive); with SN12C, > 100 µM (inactive); in the assay on LOX IMVI, > 100 µM (inactive); in the assay on NCI-H522 it was > 100 µM (inactive). Besides, in the assay on IGROV-1, the GI50 is > 100 µM (inactive).
